According to patent publication US5461036A, “Spicamycin derivatives and their use as anticancer agents” (priority 1991, dated 1995):
Like-named read-outs stand apart in the source and are kept apart here.

How the values were obtained:
in vivo = experiment: in vivo; parameters: species or system nude mice (BALB/c nu/nu); details: mouse, in vivo; intravenous, continuous 5 days, nude mice; maximum dose at which no animal was dead within 2 weeks; read-out: Maximum tolerated dose
Method: (1) Measurement of maximum tolerated dose (MTD) of the spicamycin derivatives in nude mice
The spicamycin derivative was dissolved in dimethylsulfoxide (DMSO) and Cremophor EL® at the same volume as DMSO was added. Physiological saline was added so that the concentration of DMSO and Cremophor EL® was finally adjusted to 1%, respectively, and thus injection liquids of spicamycin derivative in a variety of concentrations were prepared. […] The maximum dose at which no animal was dead was defined as the MTD of the respective derivatives.

[1] = system: human colon cancer (COL-1); type: in vivo, mouse; details: for TGIR (tumor growth inhibition rate, maximum) / minTx (relative tumor volume when reduced to the minimum): COL-1 s.c. in nude mice, at MTD; for TGIR (tumor growth inhibition rate, maximum): TGIR=(1-Tx/Cx)×100, maximum during about 3 weeks; for minTx (relative tumor volume when reduced to the minimum): minimum throughout the test period
Method: (2) Method for measuring the antitumor effect on human colon cancer (COL-1)
COL-1, a human colon cancer, was transplanted subcutaneously into nude mice. When the tumor had grown to a volume of about 100 mm^3, the nude mice were divided into groups of 5 animals so that the average tumor volumes of respective groups were equalized. The respective spicamycin derivatives were administered to test groups at their MTDs, while physiological saline (solvent) containing 1% DMSO and 1% Cremophor EL® was administered to the control group. […] RV is expressed as RV =Vn/Vo where Vn is the tumor volume on day n and Vo is the initial tumor volume at the time treatment was commenced.

[2] = /minimum effective dose (effective: TGIR≥50)

SMILES	MTD at 336 h (in vivo)	TGIR (tumor growth inhibition rate, maximum) [1]	minTx (relative tumor volume when reduced to the minimum) [1]	Therapeutic index ([1]; mouse, in vivo)	Therapeutic index [1, 2]
C=CCCCCCCCCCCC(=O)NCC(=O)N[C@@H]1[C@@H](O)[C@@H](O)[C@@H](Nc2ncnc3[nH]cnc23)O[C@H]1C(O)CO (some centres unmarked) [SPK142, 6-[4'-N-(N'-12-tridecenoylglycyl)spicaminyl-amino]purine]	6 mg/kg/day	99	0.09	4	
CCCCCCCCCCCCCC[C@@H](OC(C)=O)C(=O)NCC(=O)NC1C(O)C(O)C(Nc2ncnc3[nH]cnc23)OC1C(O)CO (stereo partly drawn) [SPK198, 6-[4'-N-(N'-(R) -2-acetoxyhexadecanoylglycyl)-spicaminyl-amino]purine]	1.5 mg/kg/day	82			
CC(C)CCCCCCCCC(=O)NCC(=O)N[C@@H]1[C@@H](O)[C@@H](O)[C@@H](Nc2ncnc3[nH]cnc23)O[C@H]1C(O)CO (some centres unmarked) [SPK9, 6-[4'-N-(N'-10-methylundecanoylglycyl)spicaminyl-amino]purine]	6 mg/kg/day	99	0.05	4	
O=C(CCCCCCCCCCCCCl)NCC(=O)N[C@@H]1[C@@H](O)[C@@H](O)[C@@H](Nc2ncnc3[nH]cnc23)O[C@H]1C(O)CO (some centres unmarked) [SPK278, 6-[4'-N-(N'-13-chlorotridecanoylglycyl)spicaminyl-amino]purine]	12 mg/kg/day	92	0.21	8	
CCCCCCCCCCCCC(=O)NCC(=O)N[C@@H]1[C@@H](O)[C@@H](O)[C@@H](Nc2ncnc3[nH]cnc23)O[C@H]1C(O)CO (some centres unmarked) [SPM9, 6-[4 '-N-(N'-tridecanoylglycyl)spicaminyl-amino]purine]	3.4 mg/kg/day	99	0.05	6	
CCCCCCCCCCCCCC(=O)NCC(=O)N[C@@H]1[C@@H](O)[C@@H](O)[C@@H](Nc2ncnc3[nH]cnc23)O[C@H]1C(O)CO (some centres unmarked) [SPM10, 6-[4 ,-N-(N'-tetradecanoylglycyl)spicaminyl-amino]purine]	2.6 mg/kg/day	98	0.10		4
CCCCCCCCCCCCCC(O)CC(=O)NCC(=O)NC1C(O)C(O)C(Nc2ncnc3[nH]cnc23)OC1C(O)CO (centres unmarked) [SPK115, 6-[4'-N-(N'-3-hydroxyhexadecanoylglycyl)-spicaminyl-amino]purine]	3 mg/kg/day	99	0.08		4
O=C(CCCCCCCCC#Cc1ccsc1)NCC(=O)NC1C(O)C(O)C(Nc2ncnc3[nH]cnc23)OC1C(O)CO (centres unmarked) [SPK263, 6-{4,-N-[N'-11-(3'-thienyl)-10-undecynoylglycyl]spicaminyl-amino}purine]	12 mg/kg/day	97	0.09	8	
O=C(CCCCCCCCCCCCCCl)NCC(=O)N[C@@H]1[C@@H](O)[C@@H](O)[C@@H](Nc2ncnc3[nH]cnc23)O[C@H]1C(O)CO (some centres unmarked) [SPK280, 6-[4'-N-(N'-14-chlorotetradecanoylglycyl)spicaminyl-amino]purine]	9 mg/kg/day	94	0.19	8	
CCCCCCCCCCCCC/C=C/C(=O)NCC(=O)N[C@@H]1[C@@H](O)[C@@H](O)[C@@H](Nc2ncnc3[nH]cnc23)O[C@H]1C(O)CO (stereo partly drawn) [SPK188, 6-[4'-N-(N'-trans-2-hexadecenoylglycyl)spicaminyl-amino]purine]	0.6 mg/kg/day	92			
O=C(CCCCCCCCCCCCCF)NCC(=O)N[C@@H]1[C@@H](O)[C@@H](O)[C@@H](Nc2ncnc3[nH]cnc23)O[C@H]1C(O)CO (some centres unmarked) [SPK279, 6-[4,-N-(N,-14-fluorotetradecanoylglycyl)spicaminyl-amino]purine]	6 mg/kg/day	93	0.25	8	
CCCCCCCCCCCCC(F)(F)C(=O)NCC(=O)NC1C(O)C(O)C(Nc2ncnc3[nH]cnc23)OC1C(O)CO (centres unmarked) [SPK182, 6-[4,-N-(N'-2,2-difluorotetradecanoylglycyl)spicaminyl-amino]purine]	36 mg/kg/day	90	0.24	8	
CCCCCCCCC/C=C/C(=O)NCC(=O)N[C@@H]1[C@@H](O)[C@@H](O)[C@@H](Nc2ncnc3[nH]cnc23)O[C@H]1C(O)CO (stereo partly drawn) [SPK86, 6-[4'-N-(N'-trans-2-dodecenoylglycyl)spicaminyl-amino]purine]	18 mg/kg/day	86			
CC(C)CCCCCCCCCC(=O)NCC(=O)N[C@@H]1[C@@H](O)[C@@H](O)[C@@H](Nc2ncnc3[nH]cnc23)O[C@H]1C(O)CO (some centres unmarked) [SPK251, 6-[4'-N-(N'-11-methyldodecanoylglycyl)spicaminyl-amino]purine]	6 mg/kg/day	97		8	
CCCC/C=C\CCCCCCCC(=O)NCC(=O)N[C@@H]1[C@@H](O)[C@@H](O)[C@@H](Nc2ncnc3[nH]cnc23)O[C@H]1C(O)CO (stereo partly drawn) [SPK231, 6-[4,-N-(N'-cis-9-tetradecenoylglycyl)spicaminyl-amino]purine]	6 mg/kg/day	96	0.12	6	
O=C(CCCCCCCCCCCCCBr)NCC(=O)N[C@@H]1[C@@H](O)[C@@H](O)[C@@H](Nc2ncnc3[nH]cnc23)O[C@H]1C(O)CO (some centres unmarked) [SPK273, 6-[4'-N-(N'-14-bromotetradecanoylglycyl)spicaminyl-amino]purine]	12 mg/kg/day	98	0.11	8	
O=C(CCCCCCCCCCCCCCF)NCC(=O)NC1C(O)C(O)C(Nc2ncnc3[nH]cnc23)OC1C(O)CO (centres unmarked) [SPK247, 6-[4,-N-(N'-15-fluoropentadecanoylglycyl)spicaminyl-amino]purine]	6 mg/kg/day	96	0.16	8	
O=C(CCCCCCCCCCCBr)NCC(=O)N[C@@H]1[C@@H](O)[C@@H](O)[C@@H](Nc2ncnc3[nH]cnc23)O[C@H]1C(O)CO (some centres unmarked) [SPK152, 6-[4'-N-(N'-12-bromododecanoylglycyl)spicaminyl-amino]purine]	36 mg/kg/day	100	0.03	8	
CCCCCCCCCCCCCC(CC(=O)NCC(=O)NC1C(O)C(O)C(Nc2ncnc3[nH]cnc23)OC1C(O)CO)OC(C)=O (centres unmarked) [SPK189, 6-[4'-N-(N'-3-acetoxyhexadecanoylglycyl)-spicaminyl-amino]purine]	6 mg/kg/day	98	0.09	4	
O=C(CCCCCCCCC#Cc1cccs1)NCC(=O)NC1C(O)C(O)C(Nc2ncnc3[nH]cnc23)OC1C(O)CO (centres unmarked) [SPK262, 6-{4'-N-[N'-11-(2'-thienyl)-10-undecynoylglycyl]spicaminyl-amino}purine]	8 mg/kg/day	99	0.03	4	
CCCCCCCCCCC[C@H](O)CC(=O)NCC(=O)NC1C(O)C(O)C(Nc2ncnc3[nH]cnc23)OC1C(O)CO (single isomer, unassigned) [SPK274, 6-[4'-N-(N'-(s)-3-hydroxytetradecanoylglydyl)spicaminyl-amino]purine]	24 mg/kg/day	92	0.16	4	
O=C(CCCCCCCCCCI)NCC(=O)NC1C(O)C(O)C(Nc2ncnc3[nH]cnc23)OC1C(O)CO (centres unmarked) [SPK165, 6-[4'-N-(N'-11-iodoundecanoylglycyl)spicaminyl-amino]purine]	24 mg/kg/day	86			
CCCCCCCCCCCCCCC(O)C(=O)NCC(=O)NC1C(O)C(O)C(Nc2ncnc3[nH]cnc23)OC1C(O)CO (centres unmarked) [SPK112, 6-[4'-N-(N'-2-hydroxyhexadecanoylglycyl)spicaminyl-amino]purine]	0.85 mg/kg/day	82			4
CCCCCCCC/C=C/C=C/C(=O)NCC(=O)N[C@@H]1[C@@H](O)[C@@H](O)[C@@H](Nc2ncnc3[nH]cnc23)O[C@H]1C(O)CO (stereo partly drawn) [SPK281, 6-[4'-N-(N'-trans,trans-2,4-tridecadienoylglycyl)spicaminyl-amino]purine]	18 mg/kg/day	99	0.06	8	
CCCCS(=O)(=O)OCCCCCCCCCCCC(=O)NCC(=O)NC1C(O)C(O)C(Nc2ncnc3[nH]cnc23)OC1C(O)CO (centres unmarked) [SPK232, 6-[4'-N-(N'-12-butanesulfonyloxydodecanoylglycyl)spicaminyl-amino]purine]	24 mg/kg/day	96		4	
